In patent publication US20230416203A1, “POTENT AND SELECTIVE INHIBITORS OF THE CALCIUM-ACTIVATED POTASSIUM CHANNEL, KCA3.1, FOR USE AS PLATFORM THERAPEUTICS” (priority 2020, published 2023):

Test: Two-week non-GLP toxicology in mice (clinical signs, body weight, body weight gain, food consumption, hematology, clinical chemistry, organ weights, histopathology)
Settings: for Organ weights relative to body weight (%), Adrenals / Organ weights relative to body weight (%), Brain / Organ weights relative to body weight (%), Heart / Organ weights relative to body weight (%), Kidneys / Organ weights relative to body weight (%), Liver / Organ weights relative to body weight (%), Ovaries / Organ weights relative to body weight (%), Spleen / Organ weights relative to body weight (%), Thymus / Organ weights relative to body weight (%), U / ALB / ALT / AST / BUN / Basophils / CREA / Eosinophils / GLU / HCT / HGB / LDLC / Lympthocytes / MCH / MCHC / MCV / Monocytes / Neutrophils / PLT / RBC / Reticuloxyte Count / TBIL / TGL / TP / Urea / WBC / Body weight gain (%) / ALP / Lymphocytes / Monosytes / Organ weights relative to body weight (%), Epididy / Organ weights relative to body weight (%), Testes / Organ weights relative to body weight (%), Thy: mean
[1] = 25 and 50 mg/kg BID, 2 weeks, mice
[2] = G2 25 mg/kg/BID oral, Treatment Day 1
[3] = G2 25 mg/kg/BID oral, Treatment Day 4
[4] = G2 25 mg/kg/BID oral, Treatment Day 8
[5] = G2 25 mg/kg/BID oral, Treatment Day 11
[6] = G2 25 mg/kg/BID oral, Treatment Day 14
[7] = G3 50 mg/kg/BID oral, Treatment Day 1
[8] = G3 50 mg/kg/BID oral, Treatment Day 4
[9] = G3 50 mg/kg/BID oral, Treatment Day 8
[10] = G3 50 mg/kg/BID oral, Treatment Day 11
[11] = G3 50 mg/kg/BID oral, Treatment Day 14
[12] = female mice, 25 mg/kg ROD oral, 2 weeks
[13] = female mice, 25 mg/kg/BID oral, 2 weeks
[14] = female mice, 25 mg/kg/BID oral, treatment day 1 to 4
[15] = female mice, 25 mg/kg/BID oral, treatment day 1 to 8
[16] = female mice, 25 mg/kg/BID oral, treatment day 1 to 11
[17] = female mice, 25 mg/kg/BID oral, treatment day 1 to 14
[18] = female mice, 50 mg/kg/BID oral, 2 weeks
[19] = female mice, 50 mg/kg/BID oral, treatment day 1 to 4
[20] = female mice, 50 mg/kg/BID oral, treatment day 1 to 8
[21] = female mice, 50 mg/kg/BID oral, treatment day 1 to 11
[22] = female mice, 50 mg/kg/BID oral, treatment day 1 to 14
[23] = female mice, 50 mg/kg:BID oral, 2 weeks
[24] = male mice, 25 mg/kg/BID oral, 2 weeks
[25] = male mice, 25 mg/kg/BID oral, treatment day 1 to 4
[26] = male mice, 25 mg/kg/BID oral, treatment day 1 to 8
[27] = male mice, 25 mg/kg/BID oral, treatment day 1 to 11
[28] = male mice, 25 mg/kg/BID oral, treatment day 1 to 14
[29] = male mice, 50 mg/kg/BID oral, 2 weeks
[30] = male mice, 50 mg/kg/BID oral, treatment day 1 to 4
[31] = male mice, 50 mg/kg/BID oral, treatment day 1 to 8
[32] = male mice, 50 mg/kg/BID oral, treatment day 1 to 11
[33] = male mice, 50 mg/kg/BID oral, treatment day 1 to 14
[34] = oral, twice daily, 25 and 50 mg/kg, 2 weeks, mice

Procedure: Each group contained 6 mice. The animals were analyzed throughout the study, and blood and tissues were analyzed at the end of the study.

COC(=O)C1=CNC=C(C(=O)OC)C1c1ccc(F)c(C(F)(F)F)c1 [Compound 103, Dimethyl 4-(4-fluoro-3-(trifluoromethyl)phenyl)-1,4-dihydropyridine-3,5-dicarboxylate]
decrease in white blood cells (WBC) (25 mg/kg and 50 mg/kg treated male and female mice, statistically significant): up to 3.4 fold
Hematological assessment, other parameters [1]: No other toxicologically significant changes were detected
Histopathology analysis [1]: did not detect any differences with controls
Organ weights [1]: not altered
gross pathology [1]: no obvious gross pathology
Body weight of female mice, Mean [2]: 20.33
Body weight of male mice, Mean [2]: 18.30
Body weight of female mice, Mean [3]: 21.03
Body weight of male mice, Mean [3]: 17.65
Body weight of female mice, Mean [4]: 21.48
Body weight of male mice, Mean [4]: 19.12
Body weight of female mice, Mean [5]: 21.52
Body weight of male mice, Mean [5]: 18.95
Body weight of female mice, Mean [6]: 21.93
Body weight of male mice, Mean [6]: 19.27
Body weight of female mice, Mean [7]: 20.47
Body weight of male mice, Mean [7]: 18.75
Body weight of female mice, Mean [8]: 20.37
Body weight of male mice, Mean [8]: 18.63
Body weight of female mice, Mean [9]: 21.13
Body weight of male mice, Mean [9]: 19.52
Body weight of female mice, Mean [10]: 21.20
Body weight of male mice, Mean [10]: 19.32
Body weight of female mice, Mean [11]: 21.73
Body weight of male mice, Mean [11]: 19.85
Organ weights relative to body weight (%), Adrenals [12]: 0.038%
Organ weights relative to body weight (%), Brain [12]: 2.217%
Organ weights relative to body weight (%), Heart [12]: 0.990%
Organ weights relative to body weight (%), Kidneys [12]: 1.379%
Organ weights relative to body weight (%), Liver [12]: 6.436%
Organ weights relative to body weight (%), Ovaries [12]: 0.077%
Organ weights relative to body weight (%), Spleen [12]: 0.672*↑ %
Organ weights relative to body weight (%), Thymus [12]: 0.200%
Organ weights relative to body weight (%), U [12]: 0.321%
ALB [13]: 2.60*↓ g/dL
ALT [13]: 40.03 U/L
AST [13]: 84.12 U/L
BUN [13]: 19.24 mg/dL
Basophils [13]: 0.00
CREA [13]: 0.13 mg/dL
Eosinophils [13]: 0.00
GLU [13]: 153.02 mg/dL
HCT [13]: 28.87%
HGB [13]: 12.97 g/dL
LDLC [13]: 9.31 mg/dL
Lympthocytes [13]: 82.00
MCH [13]: 21.10*↓ pg
MCHC [13]: 44.93*↓ g/dL
MCV [13]: 46.97*↑ fL
Monocytes [13]: 1.00
Neutrophils [13]: 17.00
PLT [13]: 616.67 10^3/μl
RBC [13]: 6.15
Reticuloxyte Count [13]: 2.63
TBIL [13]: 0.12 mg/dL
TGL [13]: 48.73 mg/dL
TP [13]: 4.12 g/dL
Urea [13]: 41.23 mg/dL
WBC [13]: 3.73*↓ 10^3/μl
Food consumption, Average Feed Intake/Animal [14]: 9.4 g/animal
Body weight gain (%) [14]: −3.53%
Food consumption, Average Feed Intake/Animal [15]: 12.8 g/animal
Body weight gain (%) [15]: 4.49%
Food consumption, Average Feed Intake/Animal [16]: 10.3 g/animal
Body weight gain (%) [16]: 3.54%
Food consumption, Average Feed Intake/Animal [17]: 9.5 g/animal
Body weight gain (%) [17]: 5.27%
ALB [18]: 2.55*↓ g/dL
ALP [18]: 254.38 U/L
ALT [18]: 55.57 U/L
AST [18]: 92.78 U/L
BUN [18]: 22.71 mg/dL
Basophils [18]: 0.00
CREA [18]: 0.12 mg/dL
Eosinophils [18]: 0.00
GLU [18]: 165.87 mg/dL
HCT [18]: 28.73%
HGB [18]: 13.67 g/dL
LDLC [18]: 8.23 mg/dL
Lympthocytes [18]: 84.00
MCH [18]: 21.23 pg
MCHC [18]: 45.37*↓ g/dL
MCV [18]: 46.83*↑ fL
Monocytes [18]: 1.33
Neutrophils [18]: 14.67
PLT [18]: 733.00 10^3/μl
RBC [18]: 6.14
Reticuloxyte Count [18]: 2.67
TBIL [18]: 0.14 mg/dL
TGL [18]: 59.97 mg/dL
TP [18]: 3.89 g/dL
Urea [18]: 48.65 mg/dL
WBC [18]: 2.17*↓ 10^3/μl
Food consumption, Average Feed Intake/Animal [19]: 9.1 g/animal
Body weight gain (%) [19]: −0.68%
Food consumption, Average Feed Intake/Animal [20]: 12.8 g/animal
Body weight gain (%) [20]: 4.10%
Food consumption, Average Feed Intake/Animal [21]: 8.7 g/animal
Body weight gain (%) [21]: 3.03%
Food consumption, Average Feed Intake/Animal [22]: 9.8 g/animal
Body weight gain (%) [22]: 5.87%
Organ weights relative to body weight (%), Adrenals [23]: 0.035%
Organ weights relative to body weight (%), Brain [23]: 2.175%
Organ weights relative to body weight (%), Heart [23]: 0.532%
Organ weights relative to body weight (%), Kidneys [23]: 1.375%
Organ weights relative to body weight (%), Liver [23]: 7.356%
Organ weights relative to body weight (%), Ovaries [23]: 0.066%
Organ weights relative to body weight (%), Spleen [23]: 0.490%
Organ weights relative to body weight (%), Thymus [23]: 0.220%
Organ weights relative to body weight (%), U [23]: 0.277%
clinical chemistry assessment (male and female mice, 25 and 50 mg/kg BID, 2 weeks): no significant toxicological change
ALB [24]: 2.66
ALP [24]: 207.96
ALT [24]: 42.36
AST [24]: 79.38
BUN [24]: 19.73
Basophils [24]: 0.00
CREA [24]: 0.14
Eosinophils [24]: 0.67
GLU [24]: 157.88 mg/dL
HCT [24]: 31.43%
HGB [24]: 15.37 g/dL
LDLC [24]: 10.02 mg/dL
Lymphocytes [24]: 82.33
MCH [24]: 23.27 pg
MCHC [24]: 48.87 g/dL
MCV [24]: 47.70 fL
Monosytes [24]: 1.33
Neutrophils [24]: 15.67
Organ weights relative to body weight (%), Adrenals [24]: 0.024%
Organ weights relative to body weight (%), Brain [24]: 2.065%
Organ weights relative to body weight (%), Epididy [24]: 0.333%
Organ weights relative to body weight (%), Heart [24]: 0.500%
Organ weights relative to body weight (%), Kidneys [24]: 1.490%
Organ weights relative to body weight (%), Liver [24]: 7.093%
Organ weights relative to body weight (%), Spleen [24]: 0.351%
Organ weights relative to body weight (%), Testes [24]: 0.582%
Organ weights relative to body weight (%), Thy [24]: 0.136%
PLT [24]: 591.33 10^3/μl
RBC [24]: 6.59
Reticuloxyte Count [24]: 2.90
TBIL [24]: 0.09*↓ mg/dL
TGL [24]: 73.46 mg/dL
TP [24]: 4.13*↑ g/dL
Urea [24]: 42.29 mg/dL
WBC [24]: 3.70*↓ 10^3/μl
Food consumption, Average Feed Intake/Animal [25]: 9.9 g/animal
Body weight gain (%) [25]: 3.45%
Food consumption, Average Feed Intake/Animal [26]: 14.8 g/animal
Body weight gain (%) [26]: 5.68%
Food consumption, Average Feed Intake/Animal [27]: 9.5 g/animal
Body weight gain (%) [27]: 5.86%
Food consumption, Average Feed Intake/Animal [28]: 10.4 g/animal
Body weight gain (%) [28]: 7.91%
ALB [29]: 2.43
ALP [29]: 180.63
ALT [29]: 59.72
AST [29]: 88.76
BUN [29]: 22.97
Basophils [29]: 0.00
CREA [29]: 0.12*↓
Eosinophils [29]: 0.00
GLU [29]: 152.77 mg/dL
HCT [29]: 30.70%
HGB [29]: 13.73 g/dL
LDLC [29]: 9.84 mg/dL
Lymphocytes [29]: 78.00
MCH [29]: 21.70 pg
MCHC [29]: 44.77 g/dL
MCV [29]: 48.40*↑ fL
Monosytes [29]: 2.00
Neutrophils [29]: 20.00
Organ weights relative to body weight (%), Adrenals [29]: 0.030%
Organ weights relative to body weight (%), Brain [29]: 2.017%
Organ weights relative to body weight (%), Epididy [29]: 0.298%
Organ weights relative to body weight (%), Heart [29]: 0.541%
Organ weights relative to body weight (%), Kidneys [29]: 1.467%
Organ weights relative to body weight (%), Liver [29]: 7.014%
Organ weights relative to body weight (%), Spleen [29]: 0.461%
Organ weights relative to body weight (%), Testes [29]: 0.773%
Organ weights relative to body weight (%), Thy [29]: 0.116%
PLT [29]: 661.00 10^3/μl
RBC [29]: 6.34
Reticuloxyte Count [29]: 2.67
TBIL [29]: 0.08*↓ mg/dL
TGL [29]: 84.42 mg/dL
TP [29]: 4.19*↑ g/dL
Urea [29]: 47.30 mg/dL
WBC [29]: 2.27*↓ 10^3/μl
Food consumption, Average Feed Intake/Animal [30]: 8.7 g/animal
Body weight gain (%) [30]: −0.49*1%
Food consumption, Average Feed Intake/Animal [31]: 14.4 g/animal
Body weight gain (%) [31]: 3.28%
Food consumption, Average Feed Intake/Animal [32]: 9.4 g/animal
Body weight gain (%) [32]: 3.60%
Food consumption, Average Feed Intake/Animal [33]: 11.0 g/animal
Body weight gain (%) [33]: 6.21%
body weight and body weight gain [34]: did not change
clinical signs [34]: No abnormal clinical signs were detected
survival [34]: all animals survived to study termination
tolerable dose (twice daily for 14 consecutive days, oral, C57BL/6 mice): > 50 mg/kg/BID
